Measured values taken from patent publication US20190202820A1, “PROCESS FOR PRODUCING FLUORINATED COMPOUNDS USING ALCOHOL SOLVENT HAVING CARBONYL GROUP” (FUTURECHEM CO., LTD., priority 2018, published 2019).
Entries after “also recorded” stand apart in the source; their conditions may differ. Where two headings read alike, the source gives them in different places.

Assay: Comparison of solubility of the precursor compound according to the kind of reaction solvent (observation with the naked eye)
Type: physicochemical
Details: for State of the solution when the temperature dropped to room temperature: t-amyl alcohol, then dropped to room temperature
Procedure: The solubility of FP-CIT, FDG, FLT, FMISO, and FC119S at room temperature and at 60° C. according to the different solvents of methyl 2-hydroxyisobutyrate solvent of the present invention and t-amyl alcohol solvent of the prior art (KR 10-0789847) was investigated.

[1] = reaction solvent methyl 2-hydroxyisobutyrate (present invention), precursor amount 4-20 mg, naked eye
[2] = reaction solvent methyl 2-hydroxyisobutyrate (present invention), room temperature, precursor amount 4-20 mg, naked eye
[3] = reaction solvent t-amyl alcohol (KR 10-0789847), precursor amount 4-20 mg, naked eye
[4] = reaction solvent t-amyl alcohol (KR 10-0789847), room temperature, precursor amount 4-20 mg, naked eye

| SMILES | State of the solution after cooling to room temperature (methyl-2-hydroxyisobutyrate, dissolved at 60° C., then cooled to room temperature) | Solubility 60° C. [1] | Solubility Room temperature [2] | Solubility 60° C. [3] | Solubility Room temperature [4] | State of the solution when the temperature dropped to room temperature (dissolved at 60° C.) | Solubility Room temperature | State of the solution after cooling to room temperature | Solubility Room temperature (reaction solvent methyl 2-hydroxyisobutyrate (present invention), room temperature, precursor amount 4-20 mg, naked eye, p-toluenesulfonate) |
| --- | --- | --- | --- | --- | --- | --- | --- | --- | --- |
| CN(C(=O)OC(C)(C)C)c1ccc(-c2nc3ccc(OC[C@@H](COS(=O)(=O)c4ccc([N+](=O)[O-])cc4)OC4CCCCO4)cc3s2)cn1 (some centres unmarked) [FC119S] | remained as a solution | dissolved | undissolved | not dissolved; also recorded: undissolved | undissolved | – | – | – | – |
| CC(=O)OC[C@H]1O[C@@H](OC(C)=O)[C@@H](OS(=O)(=O)C(F)(F)F)[C@@H](OC(C)=O)[C@@H]1OC(C)=O [FDG, 1,3,4,6-tetra-O-acetyl-2-O-trifluoro-methanesulfonyl-beta-D-mannopyranose] | – | dissolved | dissolved | dissolved | undissolved | precipitated again as solids | – | – | – |
| Cc1cn([C@H]2C[C@H](OS(=O)(=O)c3ccc([N+](=O)[O-])cc3)[C@@H](COC(c3ccccc3)(c3ccccc3)c3ccccc3)O2)c(=O)n(C(=O)OC(C)(C)C)c1=O [FLT, 3-N-Boc-5′-O-trityl-3′-O-nosyl-thymidine] | – | – | – | – | – | – | undissolved | remained as a solution | – |
| COC(=O)[C@H]1[C@@H](c2ccc(I)cc2)C[C@@H]2CC[C@H]1[N+]21CCC1.Cc1ccc(S(=O)(=O)[O-])cc1 [FP-CIT, (1′R, 2′S, 3′S, 5′S)-3′-(4-iodophenyl)-2′-(methoxycarbonyl)spiro[azetidine-1,8′-bicyclo[3,2,1]octan]-1-ium p-toluenesulfonate] | – | dissolved | – | dissolved | undissolved | precipitated again as solids | – | – | completely dissolved |
